Data reported in the NIST ThermoML archive (doi:10.1021/je7003929).
Numbers after ± are expanded uncertainties.

Assay: xn = mol fraction of the nth substance listed
Conditions: Liquid, Vibrating tube method

c1ccc2sccc2c1 [benzo[b]thiophene] + CCCCCC
Conditions	mass density [kg/m3]
332.66 K, 11013 kPa, x2 = 0.2588	998.9 ± 0.5
332.66 K, 12006 kPa, x2 = 0.2588	999.7 ± 0.5
332.66 K, 13011 kPa, x2 = 0.2588	1000.4 ± 0.5
332.66 K, 14000 kPa, x2 = 0.2588	1001.2 ± 0.5
332.66 K, 15025 kPa, x2 = 0.2588	1002 ± 0.5
332.66 K, 16005 kPa, x2 = 0.2588	1002.6 ± 0.5
332.66 K, 17000 kPa, x2 = 0.2588	1003.3 ± 0.5
332.66 K, 18002 kPa, x2 = 0.2588	1004.1 ± 0.5
332.66 K, 19009 kPa, x2 = 0.2588	1004.8 ± 0.5
332.66 K, 20016 kPa, x2 = 0.2588	1005.5 ± 0.5
332.77 K, 1019 kPa, x2 = 0.0629	1094.5 ± 0.5
332.77 K, 2029 kPa, x2 = 0.0629	1095.3 ± 0.5
332.77 K, 3030 kPa, x2 = 0.0629	1096 ± 0.5
332.77 K, 4019 kPa, x2 = 0.0629	1096.7 ± 0.5
332.77 K, 5026 kPa, x2 = 0.0629	1097.4 ± 0.5
332.77 K, 6037 kPa, x2 = 0.0629	1098.1 ± 0.5
332.77 K, 7035 kPa, x2 = 0.0629	1098.8 ± 0.5
332.77 K, 8021 kPa, x2 = 0.0629	1099.5 ± 0.5
332.77 K, 9012 kPa, x2 = 0.0629	1100.1 ± 0.5
332.77 K, 10008 kPa, x2 = 0.0629	1100.8 ± 0.5
332.77 K, 11026 kPa, x2 = 0.0629	1101.5 ± 0.5
332.77 K, 12020 kPa, x2 = 0.0629	1102.2 ± 0.5
332.77 K, 13012 kPa, x2 = 0.0629	1102.8 ± 0.5
332.77 K, 14016 kPa, x2 = 0.0629	1103.4 ± 0.5
332.77 K, 15015 kPa, x2 = 0.0629	1104.2 ± 0.5
332.77 K, 16015 kPa, x2 = 0.0629	1104.7 ± 0.5
332.77 K, 17020 kPa, x2 = 0.0629	1105.4 ± 0.5
332.77 K, 18020 kPa, x2 = 0.0629	1106.1 ± 0.5
332.77 K, 19022 kPa, x2 = 0.0629	1106.7 ± 0.5
332.77 K, 20017 kPa, x2 = 0.0629	1107.3 ± 0.5
332.82 K, 1026 kPa, x2 = 0.9432	650.1 ± 0.5
332.82 K, 2016 kPa, x2 = 0.9432	651.4 ± 0.5
332.82 K, 3016 kPa, x2 = 0.9432	652.8 ± 0.5
332.82 K, 4023 kPa, x2 = 0.9432	654.1 ± 0.5
332.82 K, 5004 kPa, x2 = 0.9432	655.4 ± 0.5
332.82 K, 6016 kPa, x2 = 0.9432	656.7 ± 0.5
332.82 K, 7012 kPa, x2 = 0.9432	658 ± 0.5
332.82 K, 8018 kPa, x2 = 0.9432	659.2 ± 0.5
332.82 K, 9014 kPa, x2 = 0.9432	660.5 ± 0.5
332.82 K, 10014 kPa, x2 = 0.9432	661.6 ± 0.5
332.82 K, 11009 kPa, x2 = 0.9432	662.8 ± 0.5
332.82 K, 12005 kPa, x2 = 0.9432	664 ± 0.5
332.82 K, 13020 kPa, x2 = 0.9432	665.1 ± 0.5
332.82 K, 14007 kPa, x2 = 0.9432	666.3 ± 0.5
332.82 K, 15005 kPa, x2 = 0.9432	667.3 ± 0.5
332.82 K, 16012 kPa, x2 = 0.9432	668.4 ± 0.5
332.82 K, 17015 kPa, x2 = 0.9432	669.5 ± 0.6
332.82 K, 18010 kPa, x2 = 0.9432	670.6 ± 0.6
332.82 K, 19000 kPa, x2 = 0.9432	671.6 ± 0.6
332.82 K, 20001 kPa, x2 = 0.9432	672.6 ± 0.6
332.86 K, 1031 kPa, x2 = 0.7491	743.7 ± 0.5
332.86 K, 2024 kPa, x2 = 0.7491	744.9 ± 0.5
332.86 K, 3019 kPa, x2 = 0.7491	746.1 ± 0.5
332.86 K, 4001 kPa, x2 = 0.7491	747.2 ± 0.5
332.86 K, 5002 kPa, x2 = 0.7491	748.4 ± 0.5
332.86 K, 6020 kPa, x2 = 0.7491	749.5 ± 0.5
332.86 K, 7005 kPa, x2 = 0.7491	750.6 ± 0.5
332.86 K, 8013 kPa, x2 = 0.7491	751.7 ± 0.5
332.86 K, 9004 kPa, x2 = 0.7491	752.8 ± 0.5
332.86 K, 10000 kPa, x2 = 0.7491	753.8 ± 0.5
332.86 K, 11019 kPa, x2 = 0.7491	754.9 ± 0.5
332.86 K, 12006 kPa, x2 = 0.7491	755.9 ± 0.5
332.86 K, 13014 kPa, x2 = 0.7491	757 ± 0.5
332.86 K, 14008 kPa, x2 = 0.7491	757.9 ± 0.5
332.86 K, 15007 kPa, x2 = 0.7491	758.9 ± 0.5
332.86 K, 16009 kPa, x2 = 0.7491	759.9 ± 0.5
332.86 K, 17002 kPa, x2 = 0.7491	760.9 ± 0.5
332.86 K, 18026 kPa, x2 = 0.7491	761.8 ± 0.5
332.86 K, 19007 kPa, x2 = 0.7491	762.8 ± 0.5
332.86 K, 20017 kPa, x2 = 0.7491	763.7 ± 0.5
